Tests used:
PTH1R = target: T1, PTH1R (Homo sapiens, UniProt Q03431); conditions: Dean et al., Hoare et al.; cited from earlier work
T1 sequence (Q03431 27-593): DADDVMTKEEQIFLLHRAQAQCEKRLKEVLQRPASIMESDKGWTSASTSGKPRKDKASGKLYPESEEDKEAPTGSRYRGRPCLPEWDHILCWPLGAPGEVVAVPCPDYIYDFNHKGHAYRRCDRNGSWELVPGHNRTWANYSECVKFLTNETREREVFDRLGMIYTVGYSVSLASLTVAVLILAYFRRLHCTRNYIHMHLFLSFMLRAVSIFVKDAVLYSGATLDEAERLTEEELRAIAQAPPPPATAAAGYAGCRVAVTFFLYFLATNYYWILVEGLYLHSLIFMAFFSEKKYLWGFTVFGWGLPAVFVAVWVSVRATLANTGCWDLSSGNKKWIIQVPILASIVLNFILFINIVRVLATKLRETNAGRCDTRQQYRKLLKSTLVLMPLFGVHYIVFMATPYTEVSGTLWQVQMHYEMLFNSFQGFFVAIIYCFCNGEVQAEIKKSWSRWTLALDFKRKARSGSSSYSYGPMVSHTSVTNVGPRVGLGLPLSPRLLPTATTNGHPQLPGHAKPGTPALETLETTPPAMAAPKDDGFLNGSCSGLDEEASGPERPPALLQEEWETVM

primary white adipocytes [1] = assay: Thermogenic gene expression (qRT-PCR) in primary white adipocytes; format: cell-based, mouse; conditions: for thermogenic effects (thermogenic gene expression): 1 μg/ml, 4 hours, primary white adipocytes (FIG. 8A-8C)
Experimental: Inguinal SV fractions were obtained from 30-35 days-old male mice by the following procedure. Inguinal fat tissue was dissected, washed with PBS, minced and digested for 45 min at 37° C. in PBS containing 10 mM CaCl, 2.4 U/mL dispase II (Roche), and 1.5 U/mL collagenase D (Roche). Digested tissue was filtered through a 100-μm cell strainer and centrifuged at 600 g for 5 min to pellet the SV cells which were then resuspended in SV culture medium (DMEM/F12 [1:1; Invitrogen] plus glutamax, pen/strep, and 10% FBS), filtered through a 40-μm cell strainer, centrifugation as above, resuspended in SV culture medium and plated. SV cells were grown to confluency for adipocyte differentiation which was induced by the adipogenic cocktail containing 1 μM dexamethasone, 5 μg/mL insulin, […] isobutylmethylxanthine (DMI), and 1 μM rosiglitazone in SV culture medium. 2 days after induction, cells were maintained in SV culture medium containing 5 μg/mL insulin and 1 μM rosiglitazone. Starting at day 6, cells were maintained in SV culture medium only and treated with various molecules for […] and harvested at day 8.
LLC cells were maintained in DMEM (Invitrogen) with 10% FBS and pen/strep. For conditioned media collection, cells were plated at ⅓ confluency. The following day, medium is changed to FreeStyle expression medium (Invitrogen) which was collected 24 hours later. For concentration of expression medium, LLC conditioned media was filtered using a 3 kilodalton (Kd) cut-off filter (Millipore). Adipocytes were maintained in SV culture media (DMEM/F12 [1:1; Invitrogen] plus glutamax, pen/strep, and 10% FBS) and conditioned media treatment experiments were performed 7 days post-differentiation. When adipocytes were treated with conditioned media for 24 hours, the treatment media were composed of 50% SV culturing medium and 50% LLC conditioned media. When conditioned medium was filtered and concentrated, adipocytes were exposed to 90% SV culturing medium and 10% concentrated LLC conditioned media.
RNA was extracted from cultured cells or frozen tissue samples using TRIzol (Invitrogen), purified with Qiagen RNAeasy minicolums and reverse transcribed using High Capacity cDNA Reverse Transcription kit (Applied Biosystems). Resulting cDNA was analyzed by RT-qPCR. Briefly, 25 ng of cDNA and […] of each primer were mixed with SYBR® GreenER™ PCR Master Mix (Invitrogen). Reactions were performed in 384-well format using an ABI PRISM® 7900HT instrument (Applied Biosystems). Relative mRNA levels were calculated using the comparative CT method normalized to cyclophilin.
Inguinal stroma-vascular fractions were obtained from 30-35-day-old male mice using the following procedure: Inguinal fat tissue was dissected, washed with PBS, minced and digested for 45 min at 37° C. in PBS containing 10 mM CaCl2, 2.4 Uml^−1 dispase 11 (Roche) and 1.5 U ml^−1 collagenaseD (Roche). Digested tissue was filtered through a 100-μm cell strainer and centrifuged at 600 g for 5 min to pellet the stroma-vascular cells. The pellets were then resuspended in adipocyte culture medium (DMEM/F2 (1:1, Invitrogen) plus GlutaMAX, penicillin and streptomycin, and 10% FBS), filtered through a 40-μm cell strainer, centrifuged as above, resuspended in adipocyte culture medium and plated. The stroma-vascular cells were grown to confluence for adipocyte differentiation, which was induced by an adipogenic cocktail containing 1 μM dexamethasone, 5 μg ml^−1 insulin, […] isobutylmethylxanthine (DMI) and 1 μM rosiglitazone in adipocyte culture medium. Two days after induction, cells were maintained in adipocyte culture medium containing 5 μg ml^−1 insulin and 1 μM rosiglitazone. Starting on day 6, cells were maintained in adipocyte culture medium only and treated with various molecules for 2-24 h and harvested on day 8.
LLC cells were maintained in DMEM (Invitrogen) with 10% FBS, and penicillin and streptomycin. For conditioned medium collection, cells were plated at a 1:3 confluence.

primary white adipocytes [2] = assay: Cellular oxygen consumption rate (XF24 Extracellular Flux Analyzer, Seahorse) of primary adipocytes; format: cell-based, mouse; conditions: for uncoupled respiration and maximal respiration potential: 24 hour treatment, norepinephrine 100 nM, peptides 100 ng/mL, SeaHorse (FIG. 8D)
Experimental: The cellular oxygen consumption rate (OCR) of primary adipocytes was determined using an XF24 Extracellular Flux Analyzer (Seahorse Bioscience). […] Twenty-four hours later, adipocyte culture medium was changed to DMEM lacking NaHCO3 but containing 10 mM glucose, 1 mM pyruvate and the treatment chemicals. The uncoupled and maximal OCRs were determined using […] (carbonyl cyanide p-trifluoromethoxyphenylhydrazone), respectively. Complex-1-dependent respiration was inhibited with 3 μM rotenone. Ex vivo tissue respiration was measured using a Clark electrode (Strathkelvin Instruments) as described in Cohen et al. (2014) Cell 156:304-316. Freshly isolated tissues were briefly minced and transferred to the electrode chamber containing a respiration buffer consisting of 1×DPBS (Delbecco's phosphate-buffered saline), 2% BSA, 25 mM glucose and 1 mM pyruvate. Oxygen consumption values were normalized to tissue weight.

For “PTH (1-34): Synthetic peptide rat PTH(1-34) (Ala32-Phe65; Catalog No. H-5460), purchased from Bachem”, the “binding in the absence of G protein coupling (RO conformational state)” value (PTH1R) is listed as “only slightly decreased”, the thermogenic gene expression (primary white adipocytes [1]; 100 ng ml^−1 peptide, 2 h, primary white adipocytes (FIG. 21B)) is listed as “stimulated thermogenic gene expression” and the “thermogenic effects (thermogenic gene expression)” value (primary white adipocytes [1]) is listed as “thermogenic effects”. For the same substance, the “thermogenic effects (thermogenic gene expression)” value (primary white adipocytes [1]; listed as PTH) was “powerful inducers of thermogenic gene expression”, the “oxygen consumption, including basal, uncoupled and maximal respiration” value (primary white adipocytes [2]; 100 nM NE, 100 ng ml^−1 PTHrP or PTH, 24 h (FIG. 23C)) was “significantly raised oxygen consumption” and the “uncoupled respiration and maximal respiration potential” value (primary white adipocytes [2]) was “significantly elevate”. For the same substance, the “uncoupled respiration and maximal respiration potential” value (primary white adipocytes [2]; listed as PTH) was “powerful inducers”.
